{
  "source": "patent US11248019B2",
  "about": "“Trityl-mono-GalNAc compounds and their use” (Hoffmann-La Roche Inc., priority 2016, dated 2022)",
  "key": {"[1]": {"test_system": "primary mouse hepatocytes", "test": "Oligonucleotide content in primary mouse hepatocyte culture by ELISA (Example 9)", "type": "in vitro ADME, C57BL/6J female mice", "experimental": "Primary mouse hepatocytes were isolated from C57BL/6J female mice. The mice were anesthesized and the liver was perfused at a flow rate of 7 ml per min through the vena cava using Hank's balanced salt solution containing 15 mM Hepes and 0.38 mM EGTA for 5 min followed by collagenase solution (Hank's balanced salt solution containing 0.17 mg/ml Collagenase type 2 (Worthington 4176), 0.03% BSA, 3.2 mM CaCl2 and 1.6 g/I NaHCO3) for 12 min. Following perfusion, the liver was removed and the liver capsule was opened, the liver suspension was filtered through 70 μm cell strainer using William E medium. The cell suspension was centrifuged for 3 min at 50×g. Viable hepatocytes were further enriched by gradient centrifugation with 45% Percoll (Sigma cat. No. P4937) for 10 min at 50×g. The pellet was washed and resuspended in 25 ml William E medium (Sigma cat. no. W1878 complemented with 1×Pen/Strep, 2 mM L-glutamine and 10% FBS (ATCC #30-2030)), and seeded at 25.000 cells per well in collagen coated 96 well plates. […] Two different incubation regimens were used, one where the cells were incubated 4 hours with oligonucleotide following a medium exchange and continued incubation to a total of 72 hours. In the second regimen the cells were incubated for 72 hours with the oligonucleotides.\nOligonucleotide content analysis was performed using ELISA (see for example Straarup et al 2010 Nucleic Acid Res Vol 38 pp 7100-7111), results are shown in table 20 and 21 below."}, "ApoB mRNA [2]": {"test_system": "ApoB mRNA", "test": "ApoB mRNA knockdown in liver and kidney by qPCR, single sc dose, sacrifice day 10 (Example 4)", "type": "in vivo, C57BL6/J mice", "details": "0.25 mg/kg single sc dose", "experimental": "(§1) Female C57BL6/J mice (5/group appr. 20 g at arrival) were injected subcutaneous (sc) with a single dose saline or 0.25 mg/kg unconjugated LNA-antisense oligonucleotide (compound F) or with 0.25 mg/kg or 0.1 mg/kg of GalNAc conjugated LNA antisense oligonucleotide (Compound C or E of the invention or reference compound G). Blood samples of 50 μl were collected pre-dosing at day minus 6, and post dosing at day 3 and 7. The animals were sacrificed at day 10 and total serum was collected as well as liver and kidney.\n(§2) ApoB mRNA knockdown was analyzed by qPCR. In brief, RNA was isolated from homogenized liver and kidney using MagnaPure RNA Isolation and purification system (catalog #03604721001 and #05467535001; Roche) according to the manufacturer's instructions. RT-QPCR was done using Taqman Fast Universal PCR Master Mix 2×(Applied Biosystems Cat #4364103) and Taqman gene expression assay (mApoB, Mn01545150_m1 and mGAPDH #4352339E) following the manufacturers protocol."}, "ALT in serum (Example 6)": {"test": "ALT in serum (Example 6)", "type": "in vivo, C57BL6/J mice", "details": "day 3", "experimental": "(§3) Female C57BL6/J mice (5/group appr. 20 g at arrival) were injected intravenous (iv) with a single dose saline, 0.22 mg/kg, 0.45 mg/kg or 0.89 mg/kg, of GalNAc conjugated LNA antisense oligonucleotide (Compound H, I or J of the invention) or the naked reference compound F. Blood samples of 50 μl were collected pre-dosing at day minus 6. The animals were sacrificed at day 3. Total serum was collected as well as liver and kidney.\nALT (Alanine aminotransferase) was measured using ABX Pentra ALT CP reagent (A11A01627 Triolab, Brondby, Denmark. The results are shown in Table 13."}, "[3]": {"test_system": "total cholesterol in serum", "test": "Total cholesterol in serum (Example 6)", "type": "in vivo, C57BL6/J mice", "details": "day 3", "experimental": "as §3\nTotal cholesterol in serum was measured using ABX Pentra Cholesterol CP (Triolab, Brondby, Denmark) according to the manufacturer's instructions."}, "[4]": {"test": "Oligonucleotide content in liver and kidney by ELISA (Example 6)", "type": "in vivo, C57BL6/J mice", "details": "day 3", "experimental": "as §3\nThe oligonucleotide content in the liver and kidney was measured using ELISA (see for example Straarup et al 2010 Nucleic Acid Res Vol 38 pp 7100-7111), results are shown in Table 11A and 11B."}, "[5]": {"test": "Oligonucleotide content in liver and kidney by ELISA (Example 4)", "type": "in vivo, C57BL6/J mice", "details": "0.25 mg/kg single sc dose, day 10", "experimental": "as §1\nThe oligonucleotide content in the liver and kidney was measured using ELISA (see for example Straarup et al 2010 Nucleic Acid Res Vol 38 pp 7100-7111), results are shown in Table 6."}, "ApoB mRNA [6]": {"test_system": "ApoB mRNA", "test": "ApoB mRNA knockdown in liver and kidney by qPCR, single iv dose, sacrifice day 3 (Example 6)", "type": "in vivo, C57BL6/J mice", "experimental": "as §2, §3"}, "ApoB mRNA [7]": {"test_system": "ApoB mRNA", "test": "ApoB mRNA knock down in primary mouse hepatocytes, qPCR (Example 9)", "type": "cell-based, C57BL/6J female mice", "details": "n = 2", "experimental": "Primary mouse hepatocytes were isolated from C57BL/6J female mice. The mice were anesthesized and the liver was perfused at a flow rate of 7 ml per min through the vena cava using Hank's balanced salt solution containing 15 mM Hepes and 0.38 mM EGTA for 5 min followed by collagenase solution (Hank's balanced salt solution containing 0.17 mg/ml Collagenase type 2 (Worthington 4176), 0.03% BSA, 3.2 mM CaCl2 and 1.6 g/I NaHCO3) for 12 min. Following perfusion, the liver was removed and the liver capsule was opened, the liver suspension was filtered through 70 μm cell strainer using William E medium. The cell suspension was centrifuged for 3 min at 50×g. Viable hepatocytes were further enriched by gradient centrifugation with 45% Percoll (Sigma cat. No. P4937) for 10 min at 50×g. The pellet was washed and resuspended in 25 ml William E medium (Sigma cat. no. W1878 complemented with 1×Pen/Strep, 2 mM L-glutamine and 10% FBS (ATCC #30-2030)), and seeded at 25.000 cells per well in collagen coated 96 well plates. After 3 hours the medium was exchanged and the oligonucleotides were added using 3 fold dilutions from […]. Two different incubation regimens were used, one where the cells were incubated 4 hours with oligonucleotide following a medium exchange and continued incubation to a total of 72 hours. […]"}},
  "data": [
    {"substance": "5′-GS^mCSaStStSgSgStSaStSTS^mCSA-3′ [Compound F, reference compound]", "values": [
      {"measurement": "oligonucleotide content in the cell culture", "setting": "[1]; 4 h pulse, 72 hours total incubation, 1 μM", "result": 0.1, "unit": "pmol/μg protein"},
      {"measurement": "oligonucleotide content in the cell culture", "setting": "[1]; 4 h pulse, 72 hours total incubation, 3 μM", "result": 0.4, "unit": "pmol/μg protein"},
      {"measurement": "oligonucleotide content in the cell culture", "setting": "[1]; 4 h pulse, 72 hours total incubation, 9 μM", "result": 1.0, "unit": "pmol/μg protein"},
      {"measurement": "oligonucleotide content in the cell culture", "setting": "[1]; 4 h pulse, 72 hours total incubation, 27 μM", "result": "1.4+/−0.2 pmol/μg protein"},
      {"measurement": "oligonucleotide content in the cell culture", "setting": "[1]; 72 h oligonucleotide treatment, 0.11 μM", "result": 0.5, "unit": "pmol/μg protein"},
      {"measurement": "oligonucleotide content in the cell culture", "setting": "[1]; 72 h oligonucleotide treatment, 0.33 μM", "result": 1.5, "unit": "pmol/μg protein"},
      {"measurement": "oligonucleotide content in the cell culture", "setting": "[1]; 72 h oligonucleotide treatment, 1 μM", "result": 7.9, "unit": "pmol/μg protein"},
      {"measurement": "oligonucleotide content in the cell culture", "setting": "[1]; 72 h oligonucleotide treatment, 3 μM", "result": 14.5, "unit": "pmol/μg protein"},
      {"measurement": "oligonucleotide content in the cell culture", "setting": "[1]; 72 h oligonucleotide treatment, 9 μM", "result": 34.1, "unit": "pmol/μg protein"},
      {"measurement": "oligonucleotide content in the cell culture", "setting": "[1]; 72 h oligonucleotide treatment, 27 μM", "result": "34.2+/−0.7 pmol/μg protein"},
      {"measurement": "ApoB mRNA expression as % of saline, mRNA kidney", "setting": "ApoB mRNA [2]; day 10, kidney", "result": "24.7 % of saline"},
      {"measurement": "ApoB mRNA expression as % of saline, mRNA liver", "setting": "ApoB mRNA [2]; day 10, liver", "result": "74.5 % of saline"},
      {"measurement": "ALT levels (U/L) in serum at day 3 as % of saline", "setting": "ALT in serum (Example 6); 0.22 mg/kg single iv dose", "result": "91 % of saline"},
      {"measurement": "ALT levels (U/L) in serum at day 3 as % of saline", "setting": "ALT in serum (Example 6); 0.45 mg/kg single iv dose", "result": "151 % of saline"},
      {"measurement": "ALT levels (U/L) in serum at day 3 as % of saline", "setting": "ALT in serum (Example 6); 0.89 mg/kg single iv dose", "result": "217 % of saline"},
      {"measurement": "serum cholesterol percent of saline", "setting": "[3]; 0.22 mg/kg single iv dose", "result": "104.3% of saline"},
      {"measurement": "serum cholesterol percent of saline", "setting": "[3]; 0.45 mg/kg single iv dose", "result": "86.8% of saline"},
      {"measurement": "serum cholesterol percent of saline", "setting": "[3]; 0.89 mg/kg single iv dose", "result": "66.9% of saline"},
      {"measurement": "Oligonucleotide content in kidney tissue", "setting": "[4]; 0.22 mg/kg single iv dose", "result": 0.337, "unit": "µg/g"},
      {"measurement": "Oligonucleotide content in liver tissue", "setting": "[4]; 0.22 mg/kg single iv dose", "result": 0.059, "unit": "µg/g"},
      {"measurement": "Oligonucleotide content in kidney tissue", "setting": "[4]; 0.45 mg/kg single iv dose", "result": 0.506, "unit": "µg/g"},
      {"measurement": "Oligonucleotide content in liver tissue", "setting": "[4]; 0.45 mg/kg single iv dose", "result": 0.173, "unit": "µg/g"},
      {"measurement": "Oligonucleotide content in kidney tissue", "setting": "[4]; 0.89 mg/kg single iv dose", "result": 1.050, "unit": "µg/g"},
      {"measurement": "Oligonucleotide content in liver tissue", "setting": "[4]; 0.89 mg/kg single iv dose", "result": 0.470, "unit": "µg/g"},
      {"measurement": "Oligonucleotide content, Kidney", "setting": "[5]", "result": 1.370, "unit": "μg/g tissue"},
      {"measurement": "Oligonucleotide content, Liver", "setting": "[5]", "result": 0.028, "unit": "μg/g tissue"},
      {"measurement": "ApoB mRNA expression as % of saline in kidney", "setting": "ApoB mRNA [6]; 0.22 mg/kg single iv dose", "result": "68.0 % of saline"},
      {"measurement": "ApoB mRNA/mGAPDH expression as % of saline in liver", "setting": "ApoB mRNA [6]; 0.22 mg/kg single iv dose", "result": "87.5 % of saline"},
      {"measurement": "ApoB mRNA expression as % of saline in kidney", "setting": "ApoB mRNA [6]; 0.45 mg/kg single iv dose", "result": "51.1 % of saline"},
      {"measurement": "ApoB mRNA/mGAPDH expression as % of saline in liver", "setting": "ApoB mRNA [6]; 0.45 mg/kg single iv dose", "result": "90.2 % of saline"},
      {"measurement": "ApoB mRNA expression as % of saline in kidney", "setting": "ApoB mRNA [6]; 0.89 mg/kg single iv dose", "result": "29.0 % of saline"},
      {"measurement": "ApoB mRNA/mGAPDH expression as % of saline in liver", "setting": "ApoB mRNA [6]; 0.89 mg/kg single iv dose", "result": "53.8 % of saline"},
      {"measurement": "IC50", "setting": "ApoB mRNA [7]; 4 h pulse/72 h total incubation", "result": 2620, "unit": "nM"},
      {"measurement": "IC50", "setting": "ApoB mRNA [7]; 72 h oligonucleotide treatment", "result": 331, "unit": "nM"}
    ]}
  ]
}
